One series is described as follows: X-ray diffraction. In kind it is physicochemical. The settings on record: before storage. How it is done: The X-ray diffractions of the above-obtained samples were measured by using a JDX-8030 X-ray diffraction apparatus (JEOL LTD.) through a Ni-filter with a CuKα x-ray (40KV, 20mA) at a scanning speed of 1.2° /min. (Fig. 1).
The format of series [1] is physicochemical. Particulars: pH 4. How it is done:
Solubility of the samples was determined by using a […] dissolution apparatus (Toyama Sangyo Co., LTD.) and 200 ml of buffer (adjusted at pH 4.0, prepared by mixing JP dissolution test solution 1 and JP dissolution test solution II) at 37 ± 0.5°C with stirring at 100 rpm paddle rotation. 250 mg (potency equivalent) of sample was added to the test solution, and the solubility of the sample was determined by high performance liquid chromatography under time course investigation. […] However, the solubility decreased immediately after about 5 minutes because of crystallization of the antibiotic. […] After storage for one month at 60°C , the solubility of the granules of Reference 3 was no more than 240μg/ml after five minutes, and became the same as that of the crystalline powders after 60 minutes.

The conditions of series [2]: acidic aqueous solution.

Like-named read-outs stand apart in the source and are kept apart here.

In the case of 4˝-O-(Para-methoxyphenylacetyl)tylosin, the X-ray diffraction peaks result in the series “X-ray diffraction” is “High X-ray diffraction peaks were observed”. Further, the solubility entry in series [1] was “no more than about a few micrograms per ml”; in series [2] (pH 2), 1200 µg/mL; in series [2] (pH 4), 10 µg/mL; in series [2] (pH 5), 2 µg/mL; in series [2] (pH 6.8), 0.5 µg/mL.
